The results in this text go back to patent publication US12319672B2, “Alpha-D-galactopyranoside derivatives” (Idorsia Pharmaceuticals Ltd, priority 2019, dated 2025).

A word on the IC50: it is the point on the concentration scale where inhibition reaches its midpoint.

The target of one assay is human Gal-3 (hGal-3) (Homo sapiens (Human), UniProt P17931). The assay is described as follows: Competitive binding assay: binding of biotinylated hGal-3 to microplate-adsorbed asialofetuin (ASF). To be noted: Activity on hGal-3; mean values of several measurements. The essentials: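 Biotinylated hGal-3 (300-1000 ng/mL) bound to ASF-coated wells with serially diluted compound, 3 h at 4° C. After washing, bound protein was detected with streptavidin-peroxidase (80 ng/mL, 1 h, 4° C) and ABTS substrate; IC50 values are means of several measurements.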

A further assay addresses human Gal-1 (hGal-1). The assay is described as follows: Competitive binding assay: binding of biotinylated hGal-1 to microplate-adsorbed asialofetuin (ASF). Conditions: Activities on hGal-1; mean values of several measurements. The essentials:
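Biotin-hGal-3/hGal-1 300-1000 ng/mL + cpd (DMSO dilutions) on ASF-coated plate, 3 h 4° C; wash; SA-HRP 80 ng/mL 1 h 4° C; wash; ABTS. IC50 = mean of several runs. hGal-1 preferably Cys→Ser (all six) mutant.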

human Gal-3 (hGal-3), sequence (P17931 whole entry): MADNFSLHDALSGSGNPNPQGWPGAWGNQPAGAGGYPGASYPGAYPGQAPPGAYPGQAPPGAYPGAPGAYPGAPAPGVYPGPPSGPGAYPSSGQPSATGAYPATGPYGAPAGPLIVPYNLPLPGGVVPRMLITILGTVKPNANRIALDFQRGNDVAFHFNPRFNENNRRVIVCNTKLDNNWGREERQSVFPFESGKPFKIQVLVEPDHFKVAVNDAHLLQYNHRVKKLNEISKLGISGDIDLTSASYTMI
human Gal-1 (hGal-1), sequence (P09382 2-135 limits assumed): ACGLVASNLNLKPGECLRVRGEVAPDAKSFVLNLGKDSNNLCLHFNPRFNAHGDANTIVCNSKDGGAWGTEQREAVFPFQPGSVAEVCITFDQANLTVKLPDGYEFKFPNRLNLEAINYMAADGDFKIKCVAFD

Turning to `COc1ccc(N2CC(C[C@H]3O[C@H](CO)[C@H](O)[C@H](n4cc(-c5cc(F)c(F)c(F)c5)nn4)[C@H]3OC)OC2=O)cc1` (mixture of isomers) [Example 5.01, (RS)-5-(((2R,3R,4S,5R,6R)-5-hydroxy-6-(hydroxymethyl)-3-methoxy-4-(4-(3,4,5-trifluorophenyl)-1H-1,2,3-triazol-1-yl)tetrahydro-2H-pyran-2-yl)methyl)-3-(4-methoxyphenyl)oxazolidin-2-one], the IC50 on human Gal-3 (hGal-3) was 1570 nM; on human Gal-1 (hGal-1), 5280 nM.

`CO[C@@H]1[C@@H](n2cc(-c3cc(F)c(F)c(F)c3)nn2)[C@@H](O)[C@@H](CO)O[C@@H]1Cc1cc(C2(C)COC2)no1` [Ex 1.211]: the half-maximal inhibitory concentration (IC50) on human Gal-3 (hGal-3) is 94 nM; on human Gal-1 (hGal-1) it was 450 nM.

Regarding `CO[C@@H]1[C@@H](n2cc(-c3cc(F)c(F)c(F)c3)nn2)[C@@H](O)[C@@H](CO)O[C@@H]1Cc1cc(C2(C#N)CCCC2)on1` [Ex 1.276], the IC50 at human Gal-3 (hGal-3) worked out at 97 nM; on human Gal-1 (hGal-1), 5100 nM.

With `CCOC(=O)N1CCC(c2cc(C[C@H]3O[C@H](CO)[C@H](O)[C@H](n4cc(-c5ccc(Cl)c(F)c5)nn4)[C@H]3OC)no2)CC1` [Ex 1.149], the 50% inhibitory concentration (IC50) came to 84 nM at human Gal-3 (hGal-3) and 470 nM on human Gal-1 (hGal-1).

In the case of `CO[C@@H]1[C@@H](n2cc(-c3cc(F)c(F)c(F)c3)nn2)[C@@H](O)[C@@H](CO)O[C@@H]1C[C@@H]1CN(C2CCN(C(=O)OC(C)(C)C)CC2)C(=O)O1` [Example 5.15, tert-butyl 4-((R)-5-(((2R,3R,4S,5R,6R)-5-hydroxy-6-(hydroxymethyl)-3-methoxy-4-(4-(3,4,5-trifluorophenyl)-1H-1,2,3-triazol-1-yl)tetrahydro-2H-pyran-2-yl)methyl)-2-oxooxazolidin-3-yl)piperidine-1-carboxylate], the values for the 50% inhibitory concentration (IC50) on human Gal-3 (hGal-3) and on human Gal-1 (hGal-1) were 50 nM and 210 nM, respectively.

For the compound `CO[C@@H]1[C@@H](n2cc(-c3cc(F)c(F)c(F)c3)nn2)[C@@H](O)[C@@H](CO)O[C@@H]1CC1CC(c2ccncc2)=NO1` (stereo partly drawn) [Ex 1.17], the IC50 on human Gal-3 (hGal-3) is 700 nM; on human Gal-1 (hGal-1) it was 8790 nM.

As to `CO[C@@H]1[C@@H](n2cc(-c3cc(F)c(F)c(F)c3)nn2)[C@@H](O)[C@@H](CO)O[C@@H]1Cc1cc(C2CCNCC2)sn1` [Example 6.03, (2R,3R,4S,5R,6R)-2-(hydroxymethyl)-5-methoxy-6-((5-(piperidin-4-yl)isothiazol-3-yl)methyl)-4-(4-(3,4,5-trifluorophenyl)-1H-1,2,3-triazol-1-yl)tetrahydro-2H-pyran-3-ol], the values for the 50% inhibitory concentration (IC50) on human Gal-3 (hGal-3) and on human Gal-1 (hGal-1) were 220 nM and 4160 nM, respectively.

With `CC(C)(C)OC(=O)N1CCC(O)(c2cc(C[C@H]3O[C@H](CO)[C@H](O)[C@H](n4cc(-c5cc(F)c(F)c(F)c5)nn4)[C@H]3O)no2)CC1` [Ex 1.61], the IC50 was determined as 36 nM on human Gal-3 (hGal-3) and 620 nM on human Gal-1 (hGal-1).

For `CO[C@@H]1[C@@H](n2cc(-c3ccc(Cl)c(F)c3)nn2)[C@@H](O)[C@@H](CO)O[C@@H]1Cc1cn(C2CCN(C(=O)OCc3ccccc3)CC2)nn1` [Example 4.34, benzyl 4-(4-(((2R,3R,4S,5R,6R)-4-(4-(4-chloro-3-fluorophenyl)-1H-1,2,3-triazol-1-yl)-5-hydroxy-6-(hydroxymethyl)-3-methoxytetrahydro-2H-pyran-2-yl)methyl)-1H-1,2,3-triazol-1-yl)piperidine-1-carboxylate], the 50% inhibitory concentration (IC50) on human Gal-3 (hGal-3) stood at 25 nM; on human Gal-1 (hGal-1), 430 nM.

`CO[C@@H]1[C@@H](n2cc(-c3ccc(C)c(F)c3F)nn2)[C@@H](O)[C@@H](CO)O[C@@H]1CC1CC(C2CCN(C(=O)OC(C)(C)C)CC2)=NO1` (stereo partly drawn) [Ex 1.137]: the IC50 came to 48 nM at human Gal-3 (hGal-3) and 1880 nM on human Gal-1 (hGal-1).

Regarding `CC(C)(C)C(=O)N1CCC(c2cc(C[C@H]3O[C@H](CO)[C@H](O)[C@H](n4cc(-c5cc(F)c(F)c(F)c5)nn4)[C@H]3O)no2)CC1` [Example 3.30, 1-(4-(3-(((2R,3R,4R,5R,6R)-3,5-dihydroxy-6-(hydroxymethyl)-4-(4-(3,4,5-trifluorophenyl)-1H-1,2,3-triazol-1-yl)tetrahydro-2H-pyran-2-yl)methyl)isoxazol-5-yl)piperidin-1-yl)-2,2-dimethylpropan-1-one], the values for the concentration for half-maximal inhibition (IC50) on human Gal-3 (hGal-3) and on human Gal-1 (hGal-1) were 160 nM and 3620 nM, respectively.

For `OC[C@H]1O[C@H](CC2CC(C3CCCCC3)=NO2)[C@H](O)[C@@H](n2cc(-c3cc(F)c(F)c(F)c3)nn2)[C@H]1O` (stereo partly drawn) [Ex 1.05], the IC50 is 480 nM at human Gal-3 (hGal-3) and 7180 nM on human Gal-1 (hGal-1).

Regarding `CO[C@@H]1[C@@H](n2cc(-c3cc(F)c(F)c(F)c3)nn2)[C@@H](O)[C@@H](CO)O[C@@H]1Cc1cc(C2(O)CCC(C)(C)CC2)on1` [Ex 1.82], the values for the IC50 at human Gal-3 (hGal-3) and on human Gal-1 (hGal-1) were 1350 nM and 28400 nM, respectively.

On to `CO[C@@H]1[C@@H](n2cc(-c3ccc(Cl)c(F)c3F)nn2)[C@@H](O)[C@@H](CO)O[C@@H]1Cc1cc(C2(C)CCOCC2)no1` [Ex 1.285], for which the figures for the IC50 at human Gal-3 (hGal-3) and at human Gal-1 (hGal-1) were 51 nM and 1100 nM, respectively.

In the case of `CO[C@@H]1[C@@H](n2cc(-c3nc(Br)cs3)nn2)[C@@H](O)[C@@H](CO)O[C@@H]1CC1CC(C2CCN(C(=O)OC(C)(C)C)CC2)=NO1` (stereo partly drawn) [Ex 1.311], the concentration for half-maximal inhibition (IC50) was found to be 2380 nM at human Gal-3 (hGal-3) and 65 nM at human Gal-1 (hGal-1).

`CO[C@@H]1[C@@H](n2cc(-c3cc(F)c(F)c(F)c3)nn2)[C@@H](O)[C@@H](CO)O[C@@H]1Cc1cc(C2CCN(S(=O)(=NC(C)C)C(C)C)CC2)on1` (stereo partly drawn) [Ex 1.197]: the figures for the IC50 at human Gal-3 (hGal-3) and at human Gal-1 (hGal-1) were 110 nM and 2190 nM, respectively.

Consider `CC(=O)N1CCC([C@@H]2CC(C[C@H]3O[C@H](CO)[C@H](O)[C@H](n4cc(-c5cc(F)c(F)c(F)c5)nn4)[C@H]3O)=NO2)CC1` [Example 3.20, 1-(4-((S)-3-(((2R,3R,4R,5R,6R)-3,5-dihydroxy-6-(hydroxymethyl)-4-(4-(3,4,5-trifluorophenyl)-1H-1,2,3-triazol-1-yl)tetrahydro-2H-pyran-2-yl)methyl)-4,5-dihydroisoxazol-5-yl)piperidin-1-yl)ethan-1-one], for which the results for the IC50 on human Gal-3 (hGal-3) and at human Gal-1 (hGal-1) were 240 nM and 1850 nM, respectively.

Consider `CCOC(=O)CC(C)(C)c1cc(C[C@H]2O[C@H](CO)[C@H](O)[C@H](n3cc(-c4cc(F)c(F)c(F)c4)nn3)[C@H]2OC)on1` [Ex 1.208], for which the IC50 on human Gal-3 (hGal-3) came to 130 nM; at human Gal-1 (hGal-1), 1640 nM.

`CCOC(=O)N1CCC(c2cc(C[C@H]3O[C@H](CO)[C@H](O)[C@H](n4cc(-c5cc(F)c(F)c(F)c5)nn4)[C@H]3OC)no2)CC1` [Example 3.31, ethyl 4-(3-(((2R,3R,4S,5R,6R)-5-hydroxy-6-(hydroxymethyl)-3-methoxy-4-(4-(3,4,5-trifluorophenyl)-1H-1,2,3-triazol-1-yl)tetrahydro-2H-pyran-2-yl)methyl)isoxazol-5-yl)piperidine-1-carboxylate]: the IC50 is 73 nM at human Gal-3 (hGal-3) and 850 nM on human Gal-1 (hGal-1).

As to `CO[C@@H]1[C@@H](n2cc(-c3ccc(F)c(F)c3F)nn2)[C@@H](O)[C@@H](CO)O[C@@H]1Cc1cc(C2CCN(S(C)(=O)=O)CC2)on1` [Ex 1.157], the values for the concentration for half-maximal inhibition (IC50) on human Gal-3 (hGal-3) and on human Gal-1 (hGal-1) were 30 nM and 94 nM, respectively.

For `COC1CCC(N2C[C@H](C[C@H]3O[C@H](CO)[C@H](O)[C@H](n4cc(-c5cc(F)c(F)c(F)c5)nn4)[C@H]3OC)OC2=O)CC1` (mixture of isomers) [Example 5.26, (RS)-5-(((2R,3R,4S,5R,6R)-5-hydroxy-6-(hydroxymethyl)-3-methoxy-4-(4-(3,4,5-trifluorophenyl)-1H-1,2,3-triazol-1-yl)tetrahydro-2H-pyran-2-yl)methyl)-3-((1s,4S)-4-methoxycyclohexyl)oxazolidin-2-one], the IC50 turned out to be 1240 nM on human Gal-3 (hGal-3) and 11800 nM on human Gal-1 (hGal-1).

For `COc1cc(F)c(F)cc1-c1cn([C@H]2[C@@H](O)[C@@H](CO)O[C@H](CC3CC(C4CCN(C(=O)OC(C)(C)C)CC4)=NO3)[C@@H]2O)nn1` (stereo partly drawn) [Ex 1.106], the half-inhibitory concentration (IC50) at human Gal-3 (hGal-3) came out at 490 nM; at human Gal-1 (hGal-1), 1530 nM.

Regarding `CC(C)(C)OC(=O)N1CCC(C2=NOC(C[C@H]3O[C@H](CO)[C@H](O)[C@H](n4cc(-c5nc6ccccc6s5)nn4)[C@H]3O)C2)CC1` (stereo partly drawn) [Ex 1.109], the figures for the IC50 on human Gal-3 (hGal-3) and at human Gal-1 (hGal-1) were 1600 nM and 210 nM, respectively.

On to `COc1ccc(C2=NOC(C[C@H]3O[C@H](CO)[C@H](O)[C@H](n4cc(-c5cc(F)c(F)c(F)c5)nn4)[C@H]3O)C2)c(Cl)c1` (stereo partly drawn) [Ex 1.13], for which the IC50 was 1110 nM at human Gal-3 (hGal-3) and 6340 nM on human Gal-1 (hGal-1).

Take “(2R,3R,4S,5R,6R)-4-(4-(2,3-difluoro-4-methylphenyl)-1H-1,2,3-triazol-1-yl)-6-((3-(1-hydroxycyclobutyl)isoxazol-5-yl)methyl)-2-(hydroxymethyl)-5-methoxytetrahydro-2H-pyran-3-ol [Example 2.57]”: the IC50 was found to be 81 nM at human Gal-3 (hGal-3) and 1450 nM on human Gal-1 (hGal-1).

For `CO[C@@H]1[C@@H](n2cc(-c3cc(F)c(F)c(F)c3)nn2)[C@@H](O)[C@@H](CO)O[C@@H]1Cn1cc(C2CCN(S(=O)(=O)N(C)C)CC2)nn1` [Example 4.26, 4-(1-(((2R,3R,4S,5R,6R)-5-hydroxy-6-(hydroxymethyl)-3-methoxy-4-(4-(3,4,5-trifluorophenyl)-1H-1,2,3-triazol-1-yl)tetrahydro-2H-pyran-2-yl)methyl)-1H-1,2,3-triazol-4-yl)-N,N-dimethylpiperidine-1-sulfonamide], the IC50 on human Gal-3 (hGal-3) is 61 nM; on human Gal-1 (hGal-1), 1240 nM.

For `CO[C@@H]1[C@@H](n2cc(-c3cc(F)c(F)c(F)c3)nn2)[C@@H](O)[C@@H](CO)O[C@@H]1Cc1cn(-c2ccccc2)c(=O)o1` [Example 6.05, 5-(((2R,3R,4S,5R,6R)-5-hydroxy-6-(hydroxymethyl)-3-methoxy-4-(4-(3,4,5-trifluorophenyl)-1H-1,2,3-triazol-1-yl)tetrahydro-2H-pyran-2-yl)methyl)-3-phenyloxazol-2(3H)-one], the IC50 worked out at 250 nM on human Gal-3 (hGal-3) and 8190 nM at human Gal-1 (hGal-1).
